# Like-named read-outs stand apart in the source and are kept apart here.
# Key:
# PfCRT^3D7 [1] = target: T1, PfCRT^3D7 (Plasmodium falciparum, UniProt Q8IBZ9); test: cell-based; assay type: cell-based
# How it was run: (§1)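 Transport measured in Xenopus oocytes expressing the transporters, 1.5 h at 27.5 °C in ND96 pH 5.5 unless noted. For trans-stimulation, VF-6 injected in 25 nL ND96 at pH 5.0–7.0 or Na^+-free (choline) buffer; intracellular levels based on ~400 nL oocyte volume. Ten oocytes per treatment, ≥4 experiments.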
# PfNT1 = target: T2, PfNT1 (Plasmodium falciparum, UniProt Q8IDM6); test: cell-based; assay type: cell-based; conditions: for activity at 5000 µM: total [3H]CQ transport
# T2 construct: expressed in transfected cells; host or cells: Xenopus laevis oocytes (stage V-VI), cRNA-injected
# How it was run: as §1
# PfCRT^Ecu1110 [2] = target: T3, PfCRT^Ecu1110 (Plasmodium falciparum, UniProt Q9N623, A220S/I356L/K76T/N326D); test: cell-based; assay type: cell-based; conditions: […]
# How it was run: as §1
# PfCRT^Dd2 [3] = target: T4, PfCRT^Dd2 (Plasmodium falciparum, UniProt Q9N623, A220S/I356T/K76T/M74I/N326S/N75E/Q271E/R371I); test: cell-based; assay type: cell-based; conditions: […]; for activity at 45000 µM: [test solute]i = 45 mM (30 mM for some solutes due to solubility)
# How it was run: as §1
# PfCRT^Ecu1110 [4] = target: T3, PfCRT^Ecu1110; test: [3H]CQ uptake into Xenopus oocytes, cis-inhibition by unlabelled solute; assay type: cell-based
# How it was run: (§2)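 Washed oocytes (ten per treatment) were exposed to label in pH 5.5 ND96 for 1.5 h at 27.5 °C. Buffer was then removed, cells rinsed in ice-cold ND96, lysed in SDS and counted.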
# PfCRT^Dd2 [5] = target: T4, PfCRT^Dd2; test: as above; assay type: cell-based
# How it was run: as §2
# PfCRT^3D7 [6] = target: T1, PfCRT^3D7; test: cell-based; assay type: cell-based; conditions: total [3H]CQ transport; for inhibition at 500 µM: [test solute] = 0.5 mM; for inhibition at 1000 µM: [test solute] = 1 mM; for inhibition at 2000 µM: [test solute] = 2 mM
# How it was run: as §2
# non-expressing oocytes [7] = assay type: cell-based, Xenopus laevis; conditions: total [3H]CQ transport; for Uptake of [3H]CQ (% non-expressing oocyte control), trans-stimulation: non-expressing oocytes, normalised to the oocyte type control; for Uptake of [3H]CQ (% PfCRTDd2 control), trans-stimulation, non-expressing oocytes: mean ± SEM, SEM
# How it was run: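 Oocytes (ten per treatment, ≥4 independent frogs/days) were preloaded by injecting VF-6 in 25 nL ND96 at pH 5.0, 5.5, 6.0 or 7.0, or Na^+-free choline buffer, then uptake run 1.5 h, 27.5 °C, ND96 pH 5.5 by default. Internal concentrations assumed ~400 nL oocyte volume.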
# non-expressing oocytes [8] = test: cells; assay type: cell-based, Xenopus laevis; conditions: Xenopus laevis, Oocyte
# How it was run: as §2
# PfCRT [9] = test: Potential co-substrates tested for influx of VF-6 via PfCRT into the oocyte; assay type: cell-based, Plasmodium falciparum; parameters: key: X: Compounds that have been tested as potential co-substrates but are not required for influx of VF-6 via PfCRT into the oocyte
# PfCRT [10] = test: Test of solutes as potential co-substrates for influx of VF-6 via PfCRT into the oocyte; assay type: cell-based, Plasmodium falciparum; parameters: key: X: Compounds that have been tested as potential co-substrates but are not required for influx of VF-6 via PfCRT into the oocyte; conditions: X = tested
# [11] = read-out: PfCRT-mediated [3H]CQ transport, cis-inhibition (% PfCRTEcu1110 control)
# [12] = read-out: Uptake of [3H]CQ (% PfCRTDd2 control), cis-inhibition, PfCRTEcu1110, SEM
# [13] = read-out: Uptake of [3H]CQ (% PfCRTEcu1110 control), cis-inhibition
# [14] = read-out: [3H]CQ transport (% PfCRTEcu1110 control), cis-inhibition, PfCRTEcu1110, SEM
# [15] = read-out: PfCRT-mediated [3H]CQ transport, cis-inhibition (% PfCRTDd2 control)
# [16] = read-out: Uptake of [3H]CQ (% PfCRTDd2 control), cis-inhibition, PfCRTDd2, SEM
# [17] = PfCRT3D7 oocytes, normalised to the oocyte type control, read-out: Uptake of [3H]CQ (% PfCRT3D7 control), cis-inhibition
# [18] = mean ± SEM, SEM, read-out: Uptake of [3H]CQ (% PfCRTDd2 control), cis-inhibition, PfCRT3D7
# [19] = read-out: Uptake of [3H]CQ (% PfCRTDd2 control), cis-inhibition, non-expressing oocytes, SEM
# [20] = read-out: Uptake of [3H]CQ (% non-expressing oocyte control), cis-inhibition
# T2 sequence (Q8IDM6 whole entry): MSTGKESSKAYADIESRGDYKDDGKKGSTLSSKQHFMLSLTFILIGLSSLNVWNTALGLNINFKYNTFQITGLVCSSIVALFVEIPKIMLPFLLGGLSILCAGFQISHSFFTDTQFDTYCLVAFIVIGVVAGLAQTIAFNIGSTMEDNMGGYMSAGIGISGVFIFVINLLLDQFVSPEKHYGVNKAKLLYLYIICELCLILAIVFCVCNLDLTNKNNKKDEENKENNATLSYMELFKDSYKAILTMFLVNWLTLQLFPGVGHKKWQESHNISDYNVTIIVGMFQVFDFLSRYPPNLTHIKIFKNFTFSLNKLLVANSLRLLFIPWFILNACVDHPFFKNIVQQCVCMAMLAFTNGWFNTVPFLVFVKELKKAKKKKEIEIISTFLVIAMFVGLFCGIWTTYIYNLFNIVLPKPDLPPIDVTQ
# T1 sequence (Q8IBZ9 59-398): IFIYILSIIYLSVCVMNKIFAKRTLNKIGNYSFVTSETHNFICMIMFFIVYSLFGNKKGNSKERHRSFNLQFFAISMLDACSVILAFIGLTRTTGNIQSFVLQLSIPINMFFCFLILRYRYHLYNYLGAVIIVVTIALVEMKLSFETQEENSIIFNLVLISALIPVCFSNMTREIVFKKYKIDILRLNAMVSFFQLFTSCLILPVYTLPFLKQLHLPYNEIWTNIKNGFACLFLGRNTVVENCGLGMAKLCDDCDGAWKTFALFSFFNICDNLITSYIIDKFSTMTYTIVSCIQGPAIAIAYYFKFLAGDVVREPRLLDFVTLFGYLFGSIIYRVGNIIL
# T3 sequence (Q9N623 whole entry A220S/I356L/K76T/N326D): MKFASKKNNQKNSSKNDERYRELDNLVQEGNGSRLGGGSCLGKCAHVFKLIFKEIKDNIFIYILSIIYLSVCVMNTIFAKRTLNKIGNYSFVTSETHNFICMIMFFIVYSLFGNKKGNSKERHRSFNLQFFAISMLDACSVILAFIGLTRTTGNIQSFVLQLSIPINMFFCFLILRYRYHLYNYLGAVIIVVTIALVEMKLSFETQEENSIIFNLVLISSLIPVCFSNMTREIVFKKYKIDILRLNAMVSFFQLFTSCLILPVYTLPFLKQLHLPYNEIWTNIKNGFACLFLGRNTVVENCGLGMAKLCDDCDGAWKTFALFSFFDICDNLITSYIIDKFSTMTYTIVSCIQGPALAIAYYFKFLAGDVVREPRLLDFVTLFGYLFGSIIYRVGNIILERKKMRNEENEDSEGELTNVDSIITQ
# T4 sequence (Q9N623 whole entry A220S/I356T/K76T/M74I/N326S/N75E/Q271E/R371I): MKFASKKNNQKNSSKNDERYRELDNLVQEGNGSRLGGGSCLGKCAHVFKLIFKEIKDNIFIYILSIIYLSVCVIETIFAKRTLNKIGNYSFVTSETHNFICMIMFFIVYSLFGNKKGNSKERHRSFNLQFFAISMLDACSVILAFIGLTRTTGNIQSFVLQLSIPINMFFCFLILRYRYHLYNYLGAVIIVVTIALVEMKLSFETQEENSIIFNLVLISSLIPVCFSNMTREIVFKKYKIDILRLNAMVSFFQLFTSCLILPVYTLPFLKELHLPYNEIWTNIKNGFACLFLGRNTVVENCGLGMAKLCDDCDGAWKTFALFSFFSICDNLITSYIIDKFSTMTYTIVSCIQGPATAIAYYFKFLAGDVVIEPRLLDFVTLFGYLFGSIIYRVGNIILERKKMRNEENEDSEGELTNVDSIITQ
smiles,measurement,setting,value
NCCCC[C@H](N)C(=O)O [L-lysine],activity at 5000 µM,"PfCRT^3D7 [1]; PfCRT3D7 oocytes, [test solute]i = 5 mM, total [3H]CQ transport, normalised to the oocyte type control, read-out: Uptake of [3H]CQ (% PfCRT3D7 control), trans-stimulation",99 ± 3.7%
same,"[3H]CQ transport (% PfCRT3D7 control), trans-stimulation, PfCRT3D7",PfCRT^3D7 [1]; SEM,0.3 ± 0.02 % PfCRT3D7 control
same,activity at 5000 µM,"PfCRT^3D7 [1]; [test solute]i = 5 mM (intracellular), PfCRT3D7 oocytes, normalised to oocyte type control, read-out: PfCRT-mediated [3H]CQ transport, trans-stimulation (% PfCRT3D7 control)",97 ± 2%
same,activity at 45000 µM,"PfCRT^3D7 [1]; SEM, read-out: Uptake of [3H]CQ (% PfCRTDd2 control), trans-stimulation, PfCRT3D7",3.3 ± 0.06%
same,activity at 45000 µM,"PfCRT^3D7 [1]; read-out: PfCRT-mediated [3H]CQ transport, trans-stimulation (% PfCRT3D7 control)",96 ± 1.9%
same,activity at 45000 µM,"PfCRT^3D7 [1]; read-out: Uptake of [3H]CQ (% PfCRT3D7 control), trans-stimulation",98 ± 2.4%
same,activity at 5000 µM,"PfCRT^3D7 [1]; total [3H]CQ transport, [test solute]i = 5 mM (intracellular), mean ± SEM, SEM, read-out: Uptake of [3H]CQ (% PfCRTDd2 control), trans-stimulation, PfCRT3D7",3.3 ± 0.05%
same,activity at 5000 µM,"PfNT1; PfNT1 oocytes, [test solute]i = 5 mM, normalised to the oocyte type control, read-out: Uptake of [3H]CQ (% PfNT1 control), trans-stimulation",100 ± 3.6%
same,activity at 45000 µM,"PfNT1; SEM, read-out: Uptake of [3H]CQ (% PfCRTDd2 control), trans-stimulation, PfNT1",2.8 ± 0.05%
same,activity at 45000 µM,"PfNT1; read-out: Uptake of [3H]CQ (% PfNT1 control), trans-stimulation",99 ± 3.7%
same,activity at 5000 µM,"PfNT1; [test solute]i = 5 mM (intracellular), mean ± SEM, SEM, read-out: Uptake of [3H]CQ (% PfCRTDd2 control), trans-stimulation, PfNT1",2.1 ± 0.01%
same,activity at 5000 µM,"PfCRT^Ecu1110 [2]; pH 5.5, read-out: PfCRT-mediated [3H]CQ transport, trans-stimulation (% PfCRTEcu1110 control), [test solute]i = 5 mM (intracellular), PfCRTEcu1110 oocytes, normalised to oocyte type control",95 ± 3.8%
same,activity at 5000 µM,"PfCRT^Ecu1110 [2]; pH 5.5, read-out: Uptake of [3H]CQ (% PfCRTEcu1110 control), trans-stimulation, PfCRTEcu1110 oocytes, [test solute]i = 5 mM, total [3H]CQ transport, normalised to the oocyte type control",97 ± 4.4%
same,activity at 45000 µM,"PfCRT^Ecu1110 [2]; pH 5.5, read-out: Uptake of [3H]CQ (% PfCRTEcu1110 control), trans-stimulation, PfCRTEcu1110 oocytes, [test solute]i = 45 mM (30 mM for some solutes due to solubility), total [3H]CQ transport, normalised to the oocyte type control",99 ± 4.2%
same,activity at 5000 µM,"PfCRT^Ecu1110 [2]; read-out: Uptake of [3H]CQ (% PfCRTDd2 control), trans-stimulation, PfCRTEcu1110, total [3H]CQ transport, [test solute]i = 5 mM (intracellular), mean ± SEM, SEM",35 ± 1.8%
same,activity at 45000 µM,"PfCRT^Ecu1110 [2]; read-out: Uptake of [3H]CQ (% PfCRTDd2 control), trans-stimulation, PfCRTEcu1110, total [3H]CQ transport, [test solute]i = 45 mM (intracellular; 30 mM for some solutes due to solubility), mean ± SEM, SEM",35 ± 1.6%
same,activity at 5000 µM,"PfCRT^Dd2 [3]; pH 5.5, read-out: PfCRT-mediated [3H]CQ transport, trans-stimulation (% PfCRTDd2 control), [test solute]i = 5 mM (intracellular), PfCRTDd2 oocytes, normalised to oocyte type control",97 ± 3.4%
same,activity at 5000 µM,"PfCRT^Dd2 [3]; pH 5.5, read-out: Uptake of [3H]CQ (% PfCRTDd2 control), trans-stimulation, PfCRTDd2, total [3H]CQ transport, [test solute]i = 5 mM (intracellular), mean ± SEM, SEM",99 ± 2.4%
same,activity at 5000 µM,"PfCRT^Dd2 [3]; pH 5.5, read-out: Uptake of [3H]CQ (% PfCRTDd2 control), trans-stimulation, PfCRTDd2 oocytes, [test solute]i = 5 mM, total [3H]CQ transport, normalised to the oocyte type control",99 ± 2.4%
same,activity at 45000 µM,"PfCRT^Dd2 [3]; pH 5.5, read-out: Uptake of [3H]CQ (% PfCRTDd2 control), trans-stimulation, PfCRTDd2 oocytes, total [3H]CQ transport, normalised to the oocyte type control",97 ± 3.2%
same,activity at 5000 µM,"PfCRT^Dd2 [3]; pH 5.5, read-out: [3H]CQ transport (% PfCRTDd2 control), trans-stimulation, PfCRTDd2, trans-stimulation, [test solute]i = 5 mM (injected), PfCRT-mediated component (background subtracted), mean ± SEM, SEM",97 ± 3.4%
same,activity at 45000 µM,"PfCRT^Dd2 [3]; pH 5.5, read-out: [3H]CQ transport (% PfCRTDd2 control), trans-stimulation, PfCRTDd2, trans-stimulation, PfCRT-mediated component (background subtracted), mean ± SEM, SEM",95 ± 4.5%
same,inhibition at 500 µM,PfCRT^Ecu1110 [4]; [11],93 ± 6.7%
same,inhibition at 1000 µM,PfCRT^Ecu1110 [4]; [11],97 ± 5.2%
same,inhibition at 2000 µM,PfCRT^Ecu1110 [4]; [11],96 ± 4.1%
same,inhibition at 500 µM,PfCRT^Ecu1110 [4]; [12],31 ± 1.9%
same,inhibition at 1000 µM,PfCRT^Ecu1110 [4]; [12],32 ± 1.8%
same,inhibition at 2000 µM,PfCRT^Ecu1110 [4]; [12],32 ± 1%
same,inhibition at 500 µM,PfCRT^Ecu1110 [4]; [13],95 ± 3.6%
same,inhibition at 1000 µM,PfCRT^Ecu1110 [4]; [13],99 ± 4.6%
same,inhibition at 2000 µM,PfCRT^Ecu1110 [4]; [13],98 ± 3.2%
same,inhibition at 500 µM,PfCRT^Ecu1110 [4]; [14],28 ± 1.6%
same,inhibition at 1000 µM,PfCRT^Ecu1110 [4]; [14],29 ± 0.2%
same,inhibition at 2000 µM,PfCRT^Ecu1110 [4]; [14],29 ± 0.2%
same,inhibition at 500 µM,PfCRT^Dd2 [5]; [15],93 ± 5.2%
same,inhibition at 1000 µM,PfCRT^Dd2 [5]; [15],99 ± 3.6%
same,inhibition at 2000 µM,PfCRT^Dd2 [5]; [15],95 ± 4.1%
same,inhibition at 500 µM,PfCRT^Dd2 [5]; [16],96 ± 3.1%
same,inhibition at 1000 µM,PfCRT^Dd2 [5]; [16],100 ± 2.8%
same,inhibition at 2000 µM,PfCRT^Dd2 [5]; [16],97 ± 3.2%
same,inhibition at 500 µM,PfCRT^3D7 [6]; [17],100 ± 4.8%
same,inhibition at 1000 µM,PfCRT^3D7 [6]; [17],101 ± 3.7%
same,inhibition at 2000 µM,PfCRT^3D7 [6]; [17],100 ± 4.7%
same,inhibition at 500 µM,PfCRT^3D7 [6]; [18],3.4 ± 0.07%
same,inhibition at 1000 µM,PfCRT^3D7 [6]; [18],3.3 ± 0.03%
same,inhibition at 2000 µM,PfCRT^3D7 [6]; [18],3.1 ± 0.07%
same,"Uptake of [3H]CQ (% non-expressing oocyte control), trans-stimulation",non-expressing oocytes [7]; [test solute]i = 5 mM,101 ± 3.2 % non-expressing oocyte control
same,"Uptake of [3H]CQ (% non-expressing oocyte control), trans-stimulation",non-expressing oocytes [7]; [test solute]i = 45 mM (30 mM for some solutes due to solubility),99 ± 3.2 % non-expressing oocyte control
same,"Uptake of [3H]CQ (% PfCRTDd2 control), trans-stimulation, non-expressing oocytes",non-expressing oocytes [7]; [test solute]i = 5 mM (intracellular),2.3 ± 0.03 % PfCRTDd2 control
same,"Uptake of [3H]CQ (% PfCRTDd2 control), trans-stimulation, non-expressing oocytes",non-expressing oocytes [7]; [test solute]i = 45 mM (intracellular; 30 mM for some solutes due to solubility),3.3 ± 0.03 % PfCRTDd2 control
same,inhibition at 500 µM,non-expressing oocytes [8]; [19],2.9 ± 0.03%
same,inhibition at 1000 µM,non-expressing oocytes [8]; [19],3.3 ± 0.07%
same,inhibition at 2000 µM,non-expressing oocytes [8]; [19],3.3 ± 0.03%
same,inhibition at 500 µM,non-expressing oocytes [8]; [20],101 ± 6.3%
same,inhibition at 1000 µM,non-expressing oocytes [8]; [20],101 ± 3.6%
same,inhibition at 2000 µM,non-expressing oocytes [8]; [20],100 ± 3.6%
same,Tested as potential co-substrate but not required for influx of VF-6 via PfCRT into the oocyte,PfCRT [9],X
same,Tested as potential co-substrate but not required for influx of VF-6 via PfCRT into the oocyte,PfCRT [10],X

# Source: paper PMC7413254 (Nature Communications, 2020)
